Reference: PubChem BioAssay AID256 (DTP/NCI, 2004)
Inconclusive results and toxic doses are left out.

System: CD2F1 mice, L1210 leukemia ip, survival T/C
Test: NCI In Vivo Anticancer Drug Screen. Data for tumor model L1210 Leukemia (intraperitoneal) in CD2F1 (CDF1) mice
Details: endpoint: mean survival time, higher = longer survival
Procedure: The antitumor activity of compounds was measured in mice bearing transplantable tumors. Survival or tumor size were measured and the results are expressed as the measurement made in the treated group (T) divided by the measurement made in the vehicle treated control group (C). The tumor model used in this assay is L1210 Leukemia (intraperitoneal) in CD2F1 (CDF1) mice

[1] = dose: 100.0 mg/kg/injection, schedule: Q01DX009 (ip), vehicle: saline with Tween-80
[2] = dose: 100.0 mg/kg/injection, schedule: Q04DX003 (ip), vehicle: saline with Tween-80
[3] = dose: 200.0 mg/kg/injection, schedule: Q01DX009 (ip), vehicle: saline with Tween-80
[4] = dose: 200.0 mg/kg/injection, schedule: Q04DX003 (ip), vehicle: saline with Tween-80
[5] = dose: 400.0 mg/kg/injection, schedule: Q01DX009 (ip), vehicle: saline with Tween-80
[6] = dose: 400.0 mg/kg/injection, schedule: Q04DX003 (ip), vehicle: saline with Tween-80

CCCCCCCCOC(=O)c1ccccc1C(=O)OCCCCCCCC
T/C [1]: 110 % of control
T/C [2]: 98 % of control
T/C [3]: 102 % of control
T/C [4]: 93 % of control
T/C [5]: 98 % of control
T/C [6]: 90 % of control

CCCCCCCCCCCCCCCCCCCCCC(=O)Nc1ccn(C2OC(CO)C(O)C2O)c(=O)n1 (configuration not stated)
T/C (dose: 100.0 mg/kg/injection, schedule: Q04DX002 (ip), vehicle: saline with Tween-80): 212 % of control
T/C (dose: 200.0 mg/kg/injection, schedule: Q04DX002 (ip), vehicle: saline with Tween-80): 253 % of control
T/C (dose: 400.0 mg/kg/injection, schedule: Q04DX002 (ip), vehicle: saline with Tween-80): 325 % of control

OC(Cc1nc(-c2ccccc2)c(-c2ccccc2)s1)(C(F)(F)F)C(F)(F)F
T/C [1]: 95 % of control
T/C [2]: 91 % of control
T/C [3]: 101 % of control
T/C [4]: 95 % of control
T/C [5]: 86 % of control
T/C [6]: 89 % of control

N#CC(C#N)=Cc1ccc2c(c1)CCC2
T/C (dose: 25.0 mg/kg/injection, schedule: Q01DX009 (ip), vehicle: saline with Tween-80): 93 % of control
T/C (dose: 25.0 mg/kg/injection, schedule: Q04DX003 (ip), vehicle: saline with Tween-80): 100 % of control
T/C (dose: 50.0 mg/kg/injection, schedule: Q01DX009 (ip), vehicle: saline with Tween-80): 96 % of control
T/C (dose: 50.0 mg/kg/injection, schedule: Q04DX003 (ip), vehicle: saline with Tween-80): 90 % of control
T/C [1]: 94 % of control
T/C [2]: 95 % of control

COc1ccc([N+](=O)[O-])cc1NC(=O)Nc1cccc(C(F)(F)F)c1
T/C (dose: 50.0 mg/kg/injection, schedule: Q01DX001 (ip), vehicle: Klucel (hydroxypropylcellulose) (HPC)): 101 % of control
T/C (dose: 100.0 mg/kg/injection, schedule: Q01DX001 (ip), vehicle: Klucel (hydroxypropylcellulose) (HPC)): 96 % of control
T/C (dose: 200.0 mg/kg/injection, schedule: Q01DX001 (ip), vehicle: Klucel (hydroxypropylcellulose) (HPC)): 93 % of control

CCOC(=O)C(N)Cc1ccc(OC)c(N(CCCl)CCCl)c1 (configuration not stated)
T/C (dose: 1.1 mg/kg/injection, schedule: Q01DX001 (ip), vehicle: carboxymethylcellulose (CMC)): 122 % of control
T/C (dose: 1.7 mg/kg/injection, schedule: Q01DX001 (ip), vehicle: carboxymethylcellulose (CMC)): 120 % of control

CNC(=O)Nc1nc2ccccc2[nH]1
T/C (dose: 50.0 mg/kg/injection, schedule: Q04DX003 (ip), vehicle: Klucel (hydroxypropylcellulose) (HPC)): 101 % of control
T/C (dose: 100.0 mg/kg/injection, schedule: Q04DX003 (ip), vehicle: Klucel (hydroxypropylcellulose) (HPC)): 102 % of control
T/C (dose: 200.0 mg/kg/injection, schedule: Q04DX003 (ip), vehicle: Klucel (hydroxypropylcellulose) (HPC)): 104 % of control
T/C (dose: 400.0 mg/kg/injection, schedule: Q04DX003 (ip), vehicle: Klucel (hydroxypropylcellulose) (HPC)): 102 % of control

CCOC(=O)C(C(C)=O)C(C)C (configuration not stated)
T/C (dose: 25.0 mg/kg/injection, schedule: Q01DX009 (ip), vehicle: water): 95 % of control
T/C (dose: 50.0 mg/kg/injection, schedule: Q01DX009 (ip), vehicle: water): 102 % of control
T/C (dose: 100.0 mg/kg/injection, schedule: Q01DX009 (ip), vehicle: water): 102 % of control
T/C (dose: 200.0 mg/kg/injection, schedule: Q01DX009 (ip), vehicle: water): 97 % of control
T/C (dose: 400.0 mg/kg/injection, schedule: Q01DX009 (ip), vehicle: water): 97 % of control

O=C1C(O)=C(c2ccccc2)C(=O)C(O)=C1c1ccccc1
T/C (dose: 3.12 mg/kg/injection, schedule: Q01DX009 (ip), vehicle: saline): 96 % of control
T/C (dose: 6.25 mg/kg/injection, schedule: Q01DX009 (ip), vehicle: saline): 95 % of control
T/C (dose: 12.5 mg/kg/injection, schedule: Q01DX009 (ip), vehicle: saline): 97 % of control
T/C (dose: 25.0 mg/kg/injection, schedule: Q01DX009 (ip), vehicle: saline): 101 % of control
T/C (dose: 50.0 mg/kg/injection, schedule: Q01DX009 (ip), vehicle: saline): 108 % of control

O=NN(CCCl)C(=O)Nc1c[nH]c2ccccc12
T/C (dose: 177.0 mg/kg/injection, schedule: Q01DX001 (ip), vehicle: saline with Tween-80): 96 % of control
T/C (dose: 177.0 mg/kg/injection, schedule: Q01DX009 (ip), vehicle: saline with Tween-80): 98 % of control
T/C (dose: 265.0 mg/kg/injection, schedule: Q01DX001 (ip), vehicle: saline with Tween-80): 97 % of control
T/C (dose: 265.0 mg/kg/injection, schedule: Q01DX009 (ip), vehicle: saline with Tween-80): 101 % of control
T/C (dose: 400.0 mg/kg/injection, schedule: Q01DX001 (ip), vehicle: saline with Tween-80): 92 % of control
T/C [5]: 97 % of control
T/C (dose: 600.0 mg/kg/injection, schedule: Q01DX001 (ip), vehicle: saline with Tween-80): 91 % of control
